The subject of assay [1] is L444P GC. Nature of the assay: intact cell GC activity assay in homozygous L444P GC patient-derived fibroblasts. In kind it is cell-based, human.
The subject of the next assay is N370S/84GG GC. Nature of the assay: GC activity in compound heterozygous N370S/84GG GC fibroblasts. In kind it is cell-based, human. The settings on record: 10 μM; 5-d treatment.
The test system of assay [2] is cytoplasmic and ER lumenal chaperones. The assay is described as follows: quantitative RT-PCR of chaperones in L444P GC fibroblasts. The class given is cell-based, human. To be noted: 10 μM; 7-d treatment. The method, then: (§1) Total RNA was extracted from the cells using RNeasy Mini Kit (Qiagen #74104). cDNA was synthesized from 500 ng of total RNA using QuantiTect Reverse Transcription Kit (Qiagen #205311). Quantitative PCR reactions were performed using QuantiTect SYBR Green PCR Kit (Qiagen #204143) and corresponding primers in the ABI PRISM 7900 system (Applied Biosystems). The forward and reverse primers for GC, Hsp40, Hsp70, Hsp90, HIP, HOP, BiP, GRP94, calnexin (CNX), and calreticulin (CRT), and an endogenous housekeeping gene large ribosomal protein (RiboP) are listed in Table S1. Samples were heated for 15 min at 95 °C and amplified in 45 cycles of 15 s at 94 °C, 30 s at 59 °C, and 30 s at 72 °C. Analysis was done using SDS2.1 software (Applied Biosystems). Threshold cycle (CT) was extracted from the PCR amplification plot. The ΔCT value was used to describe the difference between the CT of a target gene and the CT of the housekeeping gene: ΔCT = CT (target gene) – CT (housekeeping gene). The relative mRNA expression level of a target gene of diltiazem-treated cells was normalized to that of untreated cells: Relative mRNA expression level = 2 exp [–(ΔCT (treated cells) – ΔCT (untreated cells))].

Assay [3] relates to GC mRNA. The assay is described as follows: quantitative RT-PCR of GC mRNA in L444P GC fibroblasts. In kind it is cell-based, human. To be noted: 10 μM; 6 h, 12 h, 1 d, 3 d, and 5 d. The method, then:
as §1

In assay [4] the test system is GC mRNA. The class given is cell-based, human. To be noted: 10 μM; 6 h, 12 h, 1 d, 3 d, and 5 d. On the procedure: as §1
The next assay relates to ΔF508 CFTR. To be noted: ref William E. Balch, personal communication; cited from earlier work.
Assay [5] concerns L444P GC. The assay is described as follows: immunofluorescence colocalization of GC with LAMP2 in L444P GC cells. The class given is cell-based, human. The settings on record: 10 μM; 14 d. The method, then: Immunofluorescence has been previously described. Cells grown on glass cover slips were washed by PBS and fixed with 3.7% paraformaldehyde in PBS for 15 min. The slips were washed with PBS, quenched with 15 mM glycine in PBS for 10 min, and permeabilized with 0.2% saponin in PBS for 15 min. The antibodies were prepared in PBS in the presence of 0.2% saponin and 5 % goat serum. Cells were incubated for 1 h with primary antibodies (1:100 for mouse monoclonal anti-GC 16B3 [58] (kindly provided by Ernest Beutler, The Scripps Research Institute, La Jolla, CA), or 1:100 for 8E4, and 1:10,000 for rabbit anti-LAMP2 [59] (kindly provided by Michiko Fukuda, The Burnham Institute, La Jolla, CA)), washed with 5 % goat serum in PBS, and then incubated for 1 h with secondary antibodies (Alexa Fluor 488 goat anti-mouse IgG (#A11029) and Alexa Fluor 546 goat anti-rabbit IgG (#A11035)) from Molecular Probes. The cover slips were mounted and sealed. Images were collected using a Bio-Rad (Zeiss) Radiance 2100 Rainbow laser scanning confocal microscope attached to a Nikon TE2000-U microscope. For quantitative colocalization analysis, Z-stacks of each frame were flattened, and PCC was calculated using NIH Image J software. Random frames from each slide were averaged and colocalization differences were analyzed using a two-tailed Student's t-test.

The test system of a further assay is GC. Nature of the assay: GC activity in Gaucher patient-derived fibroblasts, effective culture concentration. The class given is cell-based, human. On the procedure: The intact cell GC activity assay has been previously described. Briefly, cells were plated into 48-well assay plates (500 μl per well). After cell attachment, the media was replaced by media containing small molecules. Media was changed every 3 d. After incubation at 37 °C for the indicated amount of time, the intact cell GC activity assay was performed. The monolayers were washed by DPBS. The reaction was started by the addition of 150 μl of 3 mM 4-methylumbelliferyl β-D-glucopyranoside in 0.2 M acetate buffer (pH 4.0) to each well, followed by incubation at 37 °C for 1–7 h. CBE was used as a control to evaluate the extent of nonspecific GC activity. […] Liberated 4-methylumbelliferone was measured (excitation 365 nm, emission 445 nm) with a SpectraMax Gemini plate reader (Molecular Devices). The lysed cell GC activity assay has been previously described. […] Total cell protein was measured using the Micro BCA assay reagent (Pierce #23235). Thirty μg of total cell protein was assayed for the GC activity in 100 μl of 0.1 M acetate buffer (pH 5.0) containing 3 mM 4-methylumbelliferyl β-D-glucopyranoside in the presence of 0.15% Triton X-100 (v/v, Fisher) and 0.15% taurodeoxycholate (w/v, Calbiochem). CBE was used as a control to evaluate the extent of nonspecific GC activity. […] The GC activity assay for recombinant WT GC enzymes has been previously described. […]

Assay [6] deals with T1, Cerezyme, a recombinant WT GC protein (Homo sapiens, UniProt P04062, R534H).
T1 construct: purchased Genzyme
T1 sequence (P04062 40-536 R534H): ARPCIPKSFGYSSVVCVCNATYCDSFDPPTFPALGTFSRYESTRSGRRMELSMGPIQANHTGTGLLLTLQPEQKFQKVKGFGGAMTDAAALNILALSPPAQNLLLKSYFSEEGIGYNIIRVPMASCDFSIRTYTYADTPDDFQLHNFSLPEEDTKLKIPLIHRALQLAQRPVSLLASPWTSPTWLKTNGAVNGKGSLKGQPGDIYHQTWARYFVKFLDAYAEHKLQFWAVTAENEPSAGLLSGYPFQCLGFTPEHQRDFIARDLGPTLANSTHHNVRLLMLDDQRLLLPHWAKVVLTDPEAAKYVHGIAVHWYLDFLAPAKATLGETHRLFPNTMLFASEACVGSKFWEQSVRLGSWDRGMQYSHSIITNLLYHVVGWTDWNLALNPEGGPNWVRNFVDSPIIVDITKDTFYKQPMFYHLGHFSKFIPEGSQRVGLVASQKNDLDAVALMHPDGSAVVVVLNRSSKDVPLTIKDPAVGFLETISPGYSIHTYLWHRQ
Nature of the assay: GC activity assay for recombinant WT GC enzyme (Cerezyme). In kind it is biochemical. The settings on record: 0.01–1000 μM.

Read-outs that look alike come from different tables or passages of the source.

As to `COc1ccc([C@@H]2Sc3ccccc3N(CCN(C)C)C(=O)[C@@H]2OC(C)=O)cc1` [diltiazem], the “maximum increase of L444P lysosomal GC activity” value in the assay on L444P GC [1] (10 μM, 7 d, intact cell assay, Figure 3D) stood at 2.3 fold. The “L444P GC activity after short incubation” value in the assay on L444P GC [1] (1–100 μM, 1 h, intact cell assay, Figure S3) is listed as “No activity increase was observed”. The “increase of L444P GC activity” value is 2.0 fold in the assay on L444P GC [1] (additional type II cell line (Figure 1C middle panel), 15 μM, 5 d); 2.5 fold in the assay on L444P GC [1] (additional type II cell line (Figure 1C middle panel), 15 μM, 7 d); 2.3 fold with L444P GC [1] (type III cell line (Figure 1C right panel), 10 μM, 7-d incubation). Further, the “L444P GC activity, screen of VGCC blockers, ionotropic glutamate receptor inhibitors and other calcium channel blockers” value in the assay with L444P GC [1] (intact cell GC activity assay, only the named compounds increased activity) is recorded as “increased L444P GC activity significantly”. Also, the “L444P GC activity as % of normal cellular WT GC activity” value in the assay on L444P GC [1] (type II patient cell line (Figure 1C left panel), 10 μM, 5-d incubation) was “≈ 24%”. Besides, the “maximum increase of L444P GC activity” value in the assay with L444P GC [1] (type II patient cell line (Figure 1C left panel), 10 μM, 5-d incubation, vs untreated cells) was 2.0 fold; in the assay on L444P GC [1] (type II patient cell line (Figure 1C left panel), 10 μM, 7-d incubation), 2.3 fold; with L444P GC [1] (type III cell line (Figure 1C right panel), 10 μM, 5-d incubation), 2.1 fold. For the same molecule, the “N370S/84GG GC activity as % of cellular WT GC activity” value with N370S/84GG GC is on record as “≈ 36%”. Moreover, the “BiP mRNA expression level vs untreated” value in [2] is recorded as 1.8 fold. Besides, the “Hsp40 mRNA expression level vs untreated” value in assay [2] is 1.8 fold. Moreover, in assay [2], the “Hsp90 mRNA expression level vs untreated” value is recorded as 1.9 fold. The “mRNA expression levels of Hsp70, GRP94, calnexin, and calreticulin” value in assay [2] was “not changed significantly”. Besides, the figures for the “GC mRNA expression level vs untreated” value with GC mRNA [3] and in the assay on GC mRNA [4] were “No significant differences” and “Strictly analogous results”, respectively. Besides, the “trafficking of ΔF508 CFTR to the plasma membrane” value in the assay on ΔF508 CFTR is recorded as “Nor does diltiazem treatment increase the trafficking”. In the assay with L444P GC [5], the “colocalization of L444P GC with lysosomal marker LAMP2” value was “colocalized with LAMP2 after diltiazem treatment”. Moreover, the “culture concentration of best efficacy at increasing GC activity” value with GC amounted to 10 µM. Besides, the “lowest effective cell culture media concentration” value with GC (Figures 2 and 3) was 0.1 to 1 µM. The “inhibition of Cerezyme” value in assay [6] is “lack of inhibition”.

The record behind these values is article PMC2225441, “Partial Restoration of Mutant Enzyme Homeostasis in Three Distinct Lysosomal Storage Disease Cell Lines by Altering Calcium Homeostasis” (PLoS Biology, 2008).
